# Laboratory results reported in US9149041B2, “Stabilized and activated bromine solutions as a biocide and as an antifouling agent” (Bromine Compounds Ltd., priority 2009, dated 2015).
# Experiments:
# Format in all cases: cell-based
# [1] = test system: Inoculum of bacteria (Activated sludge taken from Domestic Waste Water treatment Plant—Haifa); test: Microbial efficacy (% kill) at different TOC loading, activated sludge inoculum (Examples 12-13); details: TOC 100 ppm, 30 min, pH 7
# Protocol: (§1) Inoculum of bacteria (Activated sludge taken from Domestic Waste Water treatment Plant—Haifa).
# (§2) R2A agar for general counting.
# (§3) Tryptone, in amounts 0.025, 0.119, and 0.239 g solid tryptone respectively, was weighed and dissolved in 1 liter of buffer.
# Neutralization solution (NaHSO4).
# The biocidal efficacy of the antifouling composition at different organic loads of 0, […], 50 and 100 ppm TOC, was examined under different biocidal concentrations (1, 2.5, and 5 ppm) at pH 7.
# 1) 1 ml of inoculum was added to tryptone solutions (placed in […], 100 ml each, with different concentrations of TOC-0, 10, 50 and 100 ppm).
# (§4) 2) 1 ml of each sample was inoculated on R2A agar (pour plate method). The result stands for the bacteria count at zero time.
# 3) For each of the tryptone concentrations (0, 10, 50, 100 ppm TOC) an inoculum of bacteria (1 ml) and the appropriate biocide concentration were added.
# (§5) 4) After 30 min. of shaking (100 rpm), 1 ml of each sample was transferred to a tube filled with 9 ml of the neutralization solution. An aliquot of 1 ml was taken from this solution and added to another tube containing 9 ml of buffer solution. The solution was mixed under vortex. This operation was repeated for 4 more times.
# (§6) 5) 1 ml from the two lowest dilutions was inoculated on a R2A agar (by the pour plate method).
# (§7) 6) After the plates were incubated at 25° C. for 5-7 days, the bacteria count was recorded.
# [2] = test system: Inoculum of bacteria (Activated sludge taken from Domestic Waste Water treatment Plant—Haifa); test: Microbial efficacy (% bacteria killed) at different TOC loading, activated sludge inoculum (Example 60); details: 30 min, pH 7
# Protocol: as §1, §2, §3
# Neutralization solution (NaHSO4). […]
# 1) 1 ml of inoculum was added to tryptone solutions (placed in 3 Erlenmeyers, 100 ml each, with different concentrations of TOC-0, 10 and 50 ppm).
# as §4
# 3) For each of the tryptone concentrations (0, 10, 50 ppm TOC) an inoculum of bacteria (1 ml) and the appropriate biocide concentration were added.
# as §5, §6, §7
# [3] = test system: Pseudomonas aeruginosa (ATCC 15442); test: Microbial efficacy (% bacteria killed) at different TOC loading against Pseudomonas aeruginosa (Example 60)
# Protocol: Pseudomonas aeruginosa (ATCC 15442) […]
# 2) 1 ml of each sample was inoculated on R2A agar (pour plate method). The result stands for the bacteria count at zero time. […]
# as §5, §6, §7
# 7) The above experiment was repeated with Pseudomonas aeruginosa ATCC 15442 (instead of using an inoculums from sludge), which is representative bacteria that form biofilms.
# Microbial efficacy of different biocides against Pseudomonas aeruginosa (ATCC 15442) replacing the use activated sludge bacteria.
# [4] = test system: Pseudomonas aeruginosa (ATCC 15442) entrapped in alginate gel beads; test: Biocidal activity against simulated biofilm systems (alginate beads), Example 60
# Protocol: The biofilm simulation was created by entrapping bacteria in alginate gel beads. […] Buffer phosphate at pH 7.2 was used to scrap off the bacteria from the agar plate and to create a suspension. The bacterial suspension was mixed with an equal volume of an aqueous 4% sodium alginate solution, to make a final 2% alginate solution. The alginate and bacterial slurry were placed in a 50 ml syringe attached to a gauge needle (22), connected to a compressed air tank, allowing the syringe to be pressurized. At 20 psig pressure a stream of small drops was forced out and dropped into a stirred solution of 50 mM CaCl2. The Ca^+2 hardened the alginate, and semi solid beads with entrapped bacterial cells were formed. The beads were allowed to stir in the CaCl2 solution for about 20 minutes, and then rinsed in a dilute 5 mM CaCl2 solution. Several flasks containing 100 beads each were incubated overnight at 35° C. on a rotating shaker in a buffer solution (at pH 7) with 5 mM addition of CaCl2 to maintain the beads structure. The resulting beads diameter is about 2 mm.
# The neutralizer-citrate solution was placed in the refrigerator for 2 hours, than diluted and placed on R2A agar plates using pour plate technique. The plates were incubated at 35° C. for 24-48 hours and counted. The efficacy and toxicity of the neutralizer were checked as well as a control experiment without biocide addition. Four concentrations (0.5, 1, 2.5 and 5 ppm) were tested at four different contact times (5, 15, 30, and 60 min). […] In addition, the efficacy of bromourea from chlorourea and NaBr (1:0.5 molar ratio) was tested at the same concentrations (mentioned above) and after a long contact time of 24 hours (Table 23).
# [5] = TOC 0 ppm, biocide 2.5 ppm as Cl2
# [6] = TOC 0 ppm, biocide 5 ppm as Cl2
# [7] = TOC 10 ppm, biocide 2.5 ppm as Cl2
# [8] = TOC 10 ppm, biocide 5 ppm as Cl2
# [9] = TOC 50 ppm, biocide 2.5 ppm as Cl2
# [10] = TOC 50 ppm, biocide 5 ppm as Cl2
# [11] = TOC 0 ppm, biocide 10 ppm as Cl2
# [12] = TOC 10 ppm, biocide 10 ppm as Cl2
# [13] = TOC 50 ppm, biocide 10 ppm as Cl2
# [14] = TOC 100 ppm, biocide 2.5 ppm as Cl2
# [15] = TOC 100 ppm, biocide 5 ppm as Cl2
# [16] = biocide 0.5 ppm as Cl2, contact time 0 (initial count)
# [17] = biocide 0.5 ppm as Cl2, contact time 5 min
# [18] = biocide 0.5 ppm as Cl2, contact time 15 min
# [19] = biocide 0.5 ppm as Cl2, contact time 30 min
# [20] = biocide 0.5 ppm as Cl2, contact time 60 min
# [21] = biocide 1 ppm as Cl2, contact time 0 (initial count)
# [22] = biocide 1 ppm as Cl2, contact time 5 min
# [23] = biocide 1 ppm as Cl2, contact time 15 min
# [24] = biocide 1 ppm as Cl2, contact time 30 min
# [25] = biocide 1 ppm as Cl2, contact time 60 min
# [26] = biocide 2.5 ppm as Cl2, contact time 0 (initial count)
# [27] = biocide 2.5 ppm as Cl2, contact time 5 min
# [28] = biocide 2.5 ppm as Cl2, contact time 15 min
# [29] = biocide 2.5 ppm as Cl2, contact time 30 min
# [30] = biocide 2.5 ppm as Cl2, contact time 60 min
# [31] = biocide 5 ppm as Cl2, contact time 0 (initial count)
# [32] = biocide 5 ppm as Cl2, contact time 5 min
# [33] = biocide 5 ppm as Cl2, contact time 15 min
# [34] = biocide 5 ppm as Cl2, contact time 30 min
# [35] = biocide 5 ppm as Cl2, contact time 60 min
smiles,measurement,setting,value
"[Na+].[O-]Cl [NaOCl, reference compound]",% kill,[1]; biocide 1 ppm as Cl2,0%
same,% kill,[1]; biocide 2.5 ppm as Cl2,0%
same,% kill,[1]; biocide 5 ppm as Cl2,0%
same,% bacteria killed,"[2]; TOC 0 ppm, biocide 1 ppm as Cl2",54.1%
same,% bacteria killed,[2]; [5],95.5%
same,% bacteria killed,[2]; [6],99.6%
same,% bacteria killed,"[2]; TOC 10 ppm, biocide 1 ppm as Cl2",3.7%
same,% bacteria killed,[2]; [7],34.6%
same,% bacteria killed,[2]; [8],97.1%
same,% bacteria killed,"[2]; TOC 50 ppm, biocide 1 ppm as Cl2",0%
same,% bacteria killed,[2]; [9],12.7%
same,% bacteria killed,[2]; [10],65.9%
same,% bacteria killed,[3]; [5],100%
same,% bacteria killed,[3]; [6],100%
same,% bacteria killed,[3]; [11],100%
same,% bacteria killed,[3]; [7],43.10%
same,% bacteria killed,[3]; [8],100%
same,% bacteria killed,[3]; [12],100%
same,% bacteria killed,[3]; [9],17.24%
same,% bacteria killed,[3]; [10],18.97%
same,% bacteria killed,[3]; [13],100%
same,% bacteria killed,[3]; [14],0%
same,% bacteria killed,[3]; [15],27.59%
same,% bacteria killed,[3]; biocide 10 ppm as Cl2,90.86%
same,survival of bacteria (CFU),[4]; [16],8.00 × 10^6 CFU
same,survival of bacteria (CFU),[4]; [17],7.90 × 10^6 CFU
same,survival of bacteria (CFU),[4]; [18],5.65 × 10^6 CFU
same,survival of bacteria (CFU),[4]; [19],4.72 × 10^6 CFU
same,survival of bacteria (CFU),[4]; [20],5.00 × 10^6 CFU
same,survival of bacteria (CFU),[4]; [21],8.00 × 10^6 CFU
same,survival of bacteria (CFU),[4]; [22],4.40 × 10^6 CFU
same,survival of bacteria (CFU),[4]; [23],3.30 × 10^6 CFU
same,survival of bacteria (CFU),[4]; [24],2.15 × 10^6 CFU
same,survival of bacteria (CFU),[4]; [25],1.20 × 10^6 CFU
same,survival of bacteria (CFU),[4]; [26],8.00 × 10^6 CFU
same,survival of bacteria (CFU),[4]; [27],3.60 × 10^6 CFU
same,survival of bacteria (CFU),[4]; [28],1.83 × 10^6 CFU
same,survival of bacteria (CFU),[4]; [29],7.60 × 10^6 CFU
same,survival of bacteria (CFU),[4]; [30],1.95 × 10^5 CFU
same,survival of bacteria (CFU),[4]; [31],8.00 × 10^6 CFU
same,survival of bacteria (CFU),[4]; [32],1.74 × 10^6 CFU
same,survival of bacteria (CFU),[4]; [33],6.80 × 10^6 CFU
same,survival of bacteria (CFU),[4]; [34],3. × 10^6 CFU
same,survival of bacteria (CFU),[4]; [35],1.00 × 10^0 CFU
NC(=O)NBr [bromourea],% bacteria killed,[2]; [5],99.14%
same,% bacteria killed,[2]; [6],98.59%
same,% bacteria killed,[2]; [11],99.88%
same,% bacteria killed,[2]; [7],95.48%
same,% bacteria killed,[2]; [8],99.64%
same,% bacteria killed,[2]; [12],99.89%
same,% bacteria killed,[2]; [9],7.34%
same,% bacteria killed,[2]; [10],91.16%
same,% bacteria killed,[2]; [13],97.69%
same,% bacteria killed,[3]; [5],100%
same,% bacteria killed,[3]; [6],100%
same,% bacteria killed,[3]; [11],100%
same,% bacteria killed,[3]; [7],100%
same,% bacteria killed,[3]; [8],100%
same,% bacteria killed,[3]; [12],100%
same,% bacteria killed,[3]; [9],0%
same,% bacteria killed,[3]; [10],99.36%
same,% bacteria killed,[3]; [13],100%
same,% bacteria killed,[3]; [14],0%
same,% bacteria killed,[3]; [15],7.14%
same,% bacteria killed,[3]; biocide 10 ppm as Cl2,100%
NC(=O)NCl [chlorourea],% bacteria killed,[2]; [5],56.09%
same,% bacteria killed,[2]; [6],75.17%
same,% bacteria killed,[2]; [11],80.46%
same,% bacteria killed,[2]; [7],67.59%
same,% bacteria killed,[2]; [8],72.64%
same,% bacteria killed,[2]; [12],85.06%
same,% bacteria killed,[2]; [9],64.37%
same,% bacteria killed,[2]; [10],72.41%
same,% bacteria killed,[2]; [13],78.85%
same,% bacteria killed,[3]; [5],93.33%
same,% bacteria killed,[3]; [6],99.33%
same,% bacteria killed,[3]; [11],100%
same,% bacteria killed,[3]; [7],93.77%
same,% bacteria killed,[3]; [8],99.77%
same,% bacteria killed,[3]; [12],100%
same,% bacteria killed,[3]; [9],94.93%
same,% bacteria killed,[3]; [10],99.81%
same,% bacteria killed,[3]; [13],100%
same,% bacteria killed,[3]; [14],94.20%
same,% bacteria killed,[3]; [15],99.77%
same,% bacteria killed,[3]; biocide 10 ppm as Cl2,100%
same,survival of bacteria (CFU),[4]; [16],8.40 × 10^7 CFU
same,survival of bacteria (CFU),[4]; [17],5.90 × 10^6 CFU
same,survival of bacteria (CFU),[4]; [18],5.30 × 10^6 CFU
same,survival of bacteria (CFU),[4]; [19],5.60 × 10^6 CFU
same,survival of bacteria (CFU),[4]; [20],2.25 × 10^6 CFU
same,survival of bacteria (CFU),[4]; [21],8.40 × 10^7 CFU
same,survival of bacteria (CFU),[4]; [22],7.50 × 10^6 CFU
same,survival of bacteria (CFU),[4]; [23],7.20 × 10^6 CFU
same,survival of bacteria (CFU),[4]; [24],9.40 × 10^5 CFU
same,survival of bacteria (CFU),[4]; [25],9.13 × 10^2 CFU
same,survival of bacteria (CFU),[4]; [26],8.40 × 10^7 CFU
same,survival of bacteria (CFU),[4]; [27],7.80 × 10^6 CFU
same,survival of bacteria (CFU),[4]; [28],2.60 × 10^6 CFU
same,survival of bacteria (CFU),[4]; [29],2.21 × 10^3 CFU
same,survival of bacteria (CFU),[4]; [30],1.00 × 10^0 CFU
same,survival of bacteria (CFU),[4]; [31],8.40 × 10^7 CFU
same,survival of bacteria (CFU),[4]; [32],6.70 × 10^6 CFU
same,survival of bacteria (CFU),[4]; [33],6.50 × 10^4 CFU
same,survival of bacteria (CFU),[4]; [34],1.00 × 10^0 CFU
same,survival of bacteria (CFU),[4]; [35],1.00 × 10^0 CFU
